Results as given in patent US4352809A, “Method of producing alpha2 antagonism” (Smithkline Corporation, priority 1981, dated 1982).
Where a name gives a salt, the structure may show the parent alone.

Biological target: T1, alpha2 -adrenoceptor (Cavia porcellus, UniProt Q60474)
T1 construct: The left atrium is removed, dissected free of extraneous tissue and mounted in a 2 ml. superfusion chamber; from tissue; host or cells: isolated left atrium of male guinea pig (prejunctional receptors on sympathetic nerve terminals)
T1 sequence (Q60474 1-464): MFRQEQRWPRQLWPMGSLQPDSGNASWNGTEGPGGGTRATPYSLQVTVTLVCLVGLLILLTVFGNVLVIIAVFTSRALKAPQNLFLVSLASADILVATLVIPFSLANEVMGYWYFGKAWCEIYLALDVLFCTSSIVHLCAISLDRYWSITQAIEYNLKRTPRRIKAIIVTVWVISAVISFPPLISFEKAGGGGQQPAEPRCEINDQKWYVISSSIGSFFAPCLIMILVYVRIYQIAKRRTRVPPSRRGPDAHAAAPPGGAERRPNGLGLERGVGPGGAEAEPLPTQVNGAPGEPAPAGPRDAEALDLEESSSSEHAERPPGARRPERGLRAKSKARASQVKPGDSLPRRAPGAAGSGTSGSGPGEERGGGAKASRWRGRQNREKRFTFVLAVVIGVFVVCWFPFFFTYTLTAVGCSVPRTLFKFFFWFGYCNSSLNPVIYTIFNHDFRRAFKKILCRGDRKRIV
Assay: prejunctional alpha2-antagonist activity, isolated superfused guinea pig left atrium (shift of the clonidine concentration-response curve)
Assay type: cell-based
Conditions: isolated perfused guinea pig left atrium; antagonist concentration that shifts the clonidine log concentration-response curve to the right by a factor of 2; read-out: KB (receptor dissociation constant of the antagonist)
Description: Briefly, the heart is removed from a pentobarbitol-anesthetized male guinea pig. The left atrium is removed, dissected free of extraneous tissue and mounted in a 2 ml. superfusion chamber. The tissue is paced at 60 pulse/minute and the sympathetic nerves excited at 6 minute intervals by field stimulation. The response to nerve stimulation is measured as the difference in contractile force between the basal contraction and peak contraction following a nerve stimulation. A concentration-response curve for clonidine (alpha2 -agonist) is prepared by administering increasing concentration of clonidine following each successive stimulation. The tissue is then superfused with the alpha2 -antagonist to be tested for thirty minutes and the clonidine concentration-effect curve was repeated in the presence of antagonist. The receptor dissociation constant of the antagonist (KB) is defined as the antagonist concentration required to shift the log concentration-response curve of the agonist to the right by a factor of 2.

- Kb: 220 nM
Structure (SMILES): c1cc2snnc2c2c1CCNC2 [[1,2,3]thiadiazolo[5,4-h]-6,7,8,9-tetrahydroisoquinoline hydrochloride]
